The values below come from patent US6656920B2, “Composition and method for promoting oral health” (Amarillo Biosciences, Inc., priority 2000, dated 2003).

Assay [1] concerns subjects with primary Sjögren's syndrome. The experiment in a line: Phase 2 trial, 12 weeks, four dosages of IFN lozenges versus CAM placebo. The settings on record: Phase 2, placebo (200 mg CAM) treated patients. It counts as in vivo, human. The source says:
(§1) The purposes of our investigations were to examine the safety and efficacy of four different dosages of IFN lozenges compared to placebo in subjects with primary Sjögren's syndrome over a 12-week period in a Phase 2 trial, and to examine the best dose from our Phase 2 trial in a 24-week Phase 3 trial. The primary endpoints of our Phase 2 and Phase 3 trials were measurements of unstimulated saliva and stimulated saliva and subjective assessments of dry mouth. The IFN-α was delivered to the patients in 200 mg lozenges consisting of crystalline anhydrous maltose (CAM). The placebo was 200 mg CAM without IFN in both (Phase 2 and Phase 3) clinical trials. […] The IFN-treated group did even better (73% and 81%, respectively), but the beneficial effect of CAM on UWS was striking. […] Not only will this benefit patients with Sjögren's syndrome, but CAM should benefit people with dry mouth from other causes.

For assay [2] the test system is unchanged. As to the kind of experiment: Phase 3 trial, 24 weeks, IFN lozenges versus 200 mg CAM placebo lozenges. It counts as in vivo, human.
Excerpt: as §1

The subject of assay [3] is subjects with Sjögren's syndrome. The following applies: no sustained benefit in controlled clinical trials; cited from earlier work.
The test system is the same in assay [4]. The settings on record: at 24 weeks, 30 subjects per group, p<0.001; cited from earlier work.

On to `OC[C@H]1O[C@H](O[C@H]2[C@H](O)[C@@H](O)[C@H](O)O[C@@H]2CO)[C@H](O)[C@@H](O)[C@@H]1O` [CAM, crystalline anhydrous maltose], for which the “patients with an increase in UWS by 12 weeks” value in assay [1] is reported as 9 of 18. The “overall result of lozenge administration” value in assay [2] (200 mg maltose lozenges three times daily) is “Good results”. The “patients with an increase in unstimulated whole saliva (UWS)” value in assay [2] (Phase 3, after 6 months of daily treatment, 200 mg lozenges) came to 63.3%. As for `CN(Cc1cc(Br)cc(Br)c1N)C1CCCCC1` [bromhexine], in assay [3], the salivary output result is reported as “increase salivary output transiently”. As for `CC1OC2(CS1)CN1CCC2CC1` (stereo not shown) [cevimeline], in assay [3], the salivary output result is listed as “increase salivary output transiently”. On to `CC[C@@H]1C(=O)OC[C@@H]1Cc1cncn1C` [pilocarpine], for which the salivary output entry in assay [3] was “increase salivary output transiently”. As to sucralfate, in assay [4], the “subjects with ≧100% increase from baseline in stimulated whole salivary flow” value was 3%.
